Assay results as given in patent publication US10590129B2 (Incozen Therapeutics Pvt. Ltd., priority 2010, dated 2020).

How the values were obtained:
MKN-45 cells = assay: Inhibition of MKN-45 proliferation (MTT); type: cell-based, human; details: Homo sapiens, MKN-45, MKN-45 proliferation
Procedure, shortened: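 Viability measured by MTT dye reduction on day 5 after compound addition on day 2 to MKN-45 gastric adenocarcinoma cells (high Met expression) seeded on day 1 in complete medium.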

Row | SMILES | melting point | inhibition at 0.1 µM (MKN-45 cells) | inhibition at 1 µM (MKN-45 cells)
1 | Fc1cc(-c2ccc3nnn(Cc4ccc5ncccc5c4)c3n2)ccc1OC1CCOCC1 [Ex 85, 6-((5-(3-Fluoro-4-(tetrahydro-2H-pyran-4-yloxy)phenyl)-3H-[1,2,3]triazolo[4,5-b]pyridin-3-yl)methyl)quinoline] | 165 to 167 °C | < 25% | 75 to 100%
2 | O=C(NCC1CC1)c1ccc(-c2ccc3nnn(Cc4ccc5ncccc5c4)c3n2)cc1F [Ex 90, N-(Cyclopropylmethyl)-2-fluoro-4-(3-(quinolin-6-ylmethyl)-3H-[1,2,3]triazolo[4,5-b]pyridin-5-yl)benzamide] | 120 to 122 °C | 50 to 75% | 75 to 100%
3 | O=C(NCc1ccco1)c1ccc(-c2ccc3nnn(Cc4ccc5ncccc5c4)c3n2)cc1F [Ex 92, 2-Fluoro-N-(furan-2-ylmethyl)-4-(3-(quinolin-6-ylmethyl)-3H-[1,2,3]triazolo[4,5-b]pyridin-5-yl)benzamide] | 144 to 147 °C | – | < 25%
4 | O=C(NCC(F)(F)F)c1ccc(-c2ccc3nnn(Cc4ccc5ncccc5c4)c3n2)cc1F [Ex 93, 2-Fluoro-4-(3-(quinolin-6-ylmethyl)-3H-[1,2,3]triazolo[4,5-b]pyridin-5-yl)-N-(2,2,2-trifluoroethyl)benzamide] | 194 to 196 °C | 25 to 50% | 25 to 50%
5 | O=C(NC1CCCC1)c1ccc(-c2ccc3nnn(Cc4ccc5ncccc5c4)c3n2)cc1F [Ex 98, N-Cyclopentyl-2-fluoro-4-(3-(quinolin-6-ylmethyl)-3H-[1,2,3]triazolo[4,5-b]pyridin-5-yl)benzamide] | 166 to 168 °C | 25 to 50% | 50 to 75%
6 | CNC(=O)c1ccc(-c2ccc3nnn(C(C)(C)c4ccc5ncccc5c4)c3n2)cc1F [Ex 103, 2-Fluoro-N-methyl-4-(3-(2-(quinolin-6-yl)propan-2-yl)-3H-[1,2,3]triazolo[4,5-b]pyridin-5-yl)benzamide] | 171 to 173 °C | < 25% | –
7 | CCCNC(=O)c1ccc(-c2ccc3nnn(C(C)(C)c4ccc5ncccc5c4)c3n2)cc1F [Ex 105, 2-Fluoro-N-propyl-4-(3-(2-(quinolin-6-yl)propan-2-yl)-3H-[1,2,3]triazolo[4,5-b]pyridin-5-yl)benzamide] | 162 to 164 °C | < 25% | < 25%
8 | CC(C)(c1ccc2ncccc2c1)n1nnc2ccc(-c3ccc(C(=O)NC4CC4)c(F)c3)nc21 [Ex 106, N-Cyclopropyl-2-fluoro-4-(3-(2-(quinolin-6-yl)propan-2-yl)-3H-[1,2,3]triazolo[4,5-b]pyridin-5-yl)benzamide] | 156 to 159 °C | < 25% | 75 to 100%
9 | CCNC(=O)c1ccc(-c2ccc3nnn(C(C)(C)c4ccc5ncccc5c4)c3n2)cc1F [Ex 107, N-Ethyl-2-fluoro-4-(3-(2-(quinolin-6-yl)propan-2-yl)-3H-[1,2,3]triazolo[4,5-b]pyridin-5-yl)benzamide] | 132 to 135 °C | < 25% | –

Now from value to compound, other results behind:

Row | melting point | SMILES | inhibition at 0.1 µM (MKN-45 cells) | inhibition at 1 µM (MKN-45 cells)
10 | 102 to 105 °C | CN(C)CCCOc1ccc(-c2ccc3nnn(Cc4ccc5ncccc5c4)c3n2)cc1F [Ex 81, 3-(2-Fluoro-4-(3-(quinolin-6-ylmethyl)-3H-[1,2,3]triazolo[4,5-b]pyridin-5-yl)phenoxy)-N,N-dimethylpropan-1-amine] | 50 to 75% | 75 to 100%
11 | 122 to 124 °C | COCCOc1ccc(-c2ccc3nnn(Cc4ccc5ncccc5c4)c3n2)cc1F [Ex 86, 6-((5-(3-Fluoro-4-(2-methoxyethoxy)phenyl)-3H-[1,2,3]triazolo[4,5-b]pyridin-3-yl)methyl)quinoline] | < 25% | 75 to 100%
12 | 157 to 159 °C | CCCNC(=O)c1ccc(-c2ccc3nnn(Cc4ccc5ncccc5c4)c3n2)cc1F [Ex 87, 2-Fluoro-N-propyl-4-(3-(quinolin-6-ylmethyl)-3H-[1,2,3]triazolo[4,5-b]pyridin-5-yl)benzamide] | 75 to 100% | < 25%
13 | 105 to 107 °C | Cl.O=C(NC1CC1)c1ccc(-c2ccc3nnn(Cc4ccc5ncccc5c4)c3n2)cc1F [Ex 89, N-Cyclopropyl-2-fluoro-4-(3-(quinolin-6-ylmethyl)-3H-[1,2,3]triazolo[4,5-b]pyridin-5-yl)benzamide hydrochloride] | 75 to 100% | < 25%
14 | 100 to 102 °C | CCCCNC(=O)c1ccc(-c2ccc3nnn(Cc4ccc5ncccc5c4)c3n2)cc1F [Ex 91, N-Butyl-2-fluoro-4-(3-(quinolin-6-ylmethyl)-3H-[1,2,3]triazolo[4,5-b]pyridin-5-yl)benzamide] | 25 to 50% | 50 to 75%
15 | 162 to 164 °C | COCCNC(=O)c1ccc(-c2ccc3nnn(Cc4ccc5ncccc5c4)c3n2)cc1F [Ex 94, 2-Fluoro-N-(2-methoxyethyl)-4-(3-(quinolin-6-ylmethyl)-3H-[1,2,3]triazolo[4,5-b]pyridin-5-yl)benzamide] | 50 to 75% | < 25%
16 | 154 to 156 °C | CC(C)NS(=O)(=O)c1ccc(-c2ccc3nnn(Cc4ccc5ncccc5c4)c3n2)cc1 [Ex 95, N-Isopropyl-4-(3-(quinolin-6-ylmethyl)-3H-[1,2,3]triazolo[4,5-b]pyridin-5-yl)benzenesulfonamide] | < 25% | 50 to 75%
17 | 124 to 126 °C | CN(C)c1cccc(-c2ccc3nnn(Cc4ccc5ncccc5c4)c3n2)c1 [Ex 96, N,N-Dimethyl-3-(3-(quinolin-6-ylmethyl)-3H-[1,2,3]triazolo[4,5-b]pyridin-5-yl)aniline] | < 25% | < 25%
18 | 158 to 160 °C | CC(C)CNC(=O)c1ccc(-c2ccc3nnn(Cc4ccc5ncccc5c4)c3n2)cc1F [Ex 97, 2-Fluoro-N-isobutyl-4-(3-(quinolin-6-ylmethyl)-3H-[1,2,3]triazolo[4,5-b]pyridin-5-yl)benzamide] | 25 to 50% | 25 to 50%
19 | 177 to 179 °C | CC(C)NC(=O)c1ccc(-c2ccc3nnn(Cc4ccc5ncccc5c4)c3n2)cc1F [Ex 99, 2-Fluoro-N-isopropyl-4-(3-(quinolin-6-ylmethyl)-3H-[1,2,3]triazolo[4,5-b]pyridin-5-yl)benzamide] | 50 to 75% | 50 to 75%
20 | 128 to 130 °C | CCCNC(=O)c1ccc(-c2ccc3nnn(Cc4ccc5ncccc5c4)c3n2)cc1Cl [Ex 102, 2-Chloro-N-propyl-4-(3-(quinolin-6-ylmethyl)-3H-[1,2,3]triazolo[4,5-b]pyridin-5-yl)benzamide] | 50 to 75% | 75 to 100%
21 | 171 to 174 °C | O=C(NC1CCC1)c1ccc(-c2ccc3nnn(Cc4ccc5ncccc5c4)c3n2)cc1F [Ex 104, N-Cyclobutyl-2-fluoro-4-(3-(quinolin-6-ylmethyl)-3H-[1,2,3]triazolo[4,5-b]pyridin-5-yl)benzamide] | 50 to 75% | 75 to 100%
